Experimental data published in ChEMBL document CHEMBL1126978, “Assessment of the biological value of the 11-hydroxy group of the azalides” (1993).
Values after ≈ are worked out from the molar mass of the structure shown.

How the values were obtained:
Assay type in all cases: functional
Enterobacter cloacae [1] = test: Tested in vitro for antimicrobial activity against Enterobacter cloacae CL 4298
Enterococcus faecalis [2] = test: Tested in vitro for antimicrobial activity against Enterococcus faecalis MB 5407; value ranges from 4-8 ug/mL
Escherichia coli [3] = test: Tested in vitro for antimicrobial activity against Escherichia coli MB 2884
Haemophilus influenzae [4] = test: Tested in vitro for antimicrobial activity against Haemophilus influenzae MB 5363; value ranges from 4-8 ug/mL
Klebsiella pneumoniae [5] = test: Tested in vitro for antimicrobial activity against Klebsiella pneumoniae MB 4005; value ranges from 2-4 ug/mL
[6] = test system: Staphylococcus haemolyticus; test: Tested in vitro for antimicrobial activity against Staphylococcus haemolyticus MB 5412; value ranges from 0.25-0.5 ug/mL
Staphylococcus aureus [7] = test: Tested in vitro for antimicrobial activity against Staphylococcus aureus MB 2865
Streptococcus pyogenes [8] = test: Tested in vitro for antimicrobial activity against Streptococcus pyogenes MB 2874; value ranges from 0.03-0.06 ug/mL
Streptococcus pyogenes [9] = test: Tested in vitro for antimicrobial activity against constitutively macrolide resistant Streptococcus pyogenes MB 5403
Streptococcus pyogenes [10] = test: Tested in vitro for antimicrobial activity against inducibly macrolide resistant Streptococcus pyogenes MB 5406; value ranges from 16-32 ug/mL
Enterobacter cloacae [11] = test: Tested in vitro for antimicrobial activity against Enterobacter cloacae CL 4298; value ranges from 2-4 ug/mL
Enterococcus faecalis [12] = test: Tested in vitro for antimicrobial activity against Enterococcus faecalis MB 5407; value ranges from 2-4 ug/mL
Escherichia coli [13] = test: Tested in vitro for antimicrobial activity against Escherichia coli MB 2884; value ranges from 2-4 ug/mL
Haemophilus influenzae [14] = test: Tested in vitro for antimicrobial activity against Haemophilus influenzae MB 5363; value ranges from 2-4 ug/mL
[15] = test system: Staphylococcus haemolyticus; test: Tested in vitro for antimicrobial activity against Staphylococcus haemolyticus MB 5412; value ranges from 0.125-0.25 ug/mL
Staphylococcus aureus [16] = test: Tested in vitro for antimicrobial activity against Staphylococcus aureus MB 2865; value ranges from 0.25-1 ug/mL
Streptococcus pyogenes [17] = test: Tested in vitro for antimicrobial activity against inducibly macrolide resistant Streptococcus pyogenes MB 5406; value ranges from 8-16 ug/mL
Haemophilus influenzae [18] = test: Tested in vitro for antimicrobial activity against Haemophilus influenzae MB 5363; value ranges from 1-4 ug/mL
Klebsiella pneumoniae [19] = test: Tested in vitro for antimicrobial activity against Klebsiella pneumoniae MB 4005; value ranges from 1-2 ug/mL
Staphylococcus aureus [20] = test: Tested in vitro for antimicrobial activity against Staphylococcus aureus MB 2865; value ranges from 0.5-1 ug/mL
Enterobacter cloacae [21] = test: Tested in vitro for antimicrobial activity against Enterobacter cloacae CL 4298; value ranges from 0.5-2 ug/mL
Escherichia coli [22] = test: Tested in vitro for antimicrobial activity against Escherichia coli MB 2884; value ranges from 1-2 ug/mL
Enterobacter cloacae [23] = test: Tested in vitro for antimicrobial activity against Enterobacter cloacae CL 4298; value ranges from 64->128 ug/mL
Enterococcus faecalis [24] = test: Tested in vitro for antimicrobial activity against Enterococcus faecalis MB 5407; value ranges from 64-128 ug/mL
Escherichia coli [25] = test: Tested in vitro for antimicrobial activity against Escherichia coli MB 2884; value ranges from 64->128 ug/mL
Haemophilus influenzae [26] = test: Tested in vitro for antimicrobial activity against Haemophilus influenzae MB 5363; value ranges from 32->128 ug/mL
Klebsiella pneumoniae [27] = test: Tested in vitro for antimicrobial activity against Klebsiella pneumoniae MB 4005; value ranges from 64->128 ug/mL
Staphylococcus aureus [28] = test: Tested in vitro for antimicrobial activity against Staphylococcus aureus MB 2865; value ranges from 16-64 ug/mL
Streptococcus pyogenes [29] = test: Tested in vitro for antimicrobial activity against Streptococcus pyogenes MB 2874; value ranges from 1-4 ug/mL
Streptococcus pyogenes [30] = test: Tested in vitro for antimicrobial activity against inducibly macrolide resistant Streptococcus pyogenes MB 5406
[31] = test system: Staphylococcus haemolyticus; test: Tested in vitro for antimicrobial activity against Staphylococcus haemolyticus MB 5412; value ranges from 8-32 ug/mL
Enterobacter cloacae [32] = test: Tested in vitro for antimicrobial activity against Enterobacter cloacae CL 4298; value ranges from 4-8 ug/mL
Escherichia coli [33] = test: Tested in vitro for antimicrobial activity against Escherichia coli MB 2884; value ranges from 8-16 ug/mL
Klebsiella pneumoniae [34] = test: Tested in vitro for antimicrobial activity against Klebsiella pneumoniae MB 4005
[35] = test system: Staphylococcus haemolyticus; test: Tested in vitro for antimicrobial activity against Staphylococcus haemolyticus MB 5412; value ranges from 0.5-1 ug/mL
Staphylococcus aureus [36] = test: Tested in vitro for antimicrobial activity against Staphylococcus aureus MB 2865; value ranges from 2-4 ug/mL
Enterobacter cloacae [37] = test: Tested in vitro for antimicrobial activity against Enterobacter cloacae CL 4298; value ranges from 32-64 ug/mL
Enterococcus faecalis [38] = test: Tested in vitro for antimicrobial activity against Enterococcus faecalis MB 5407; value ranges from 1-2 ug/mL
Escherichia coli [39] = test: Tested in vitro for antimicrobial activity against Escherichia coli MB 2884; value ranges from 32-64 ug/mL
Klebsiella pneumoniae [40] = test: Tested in vitro for antimicrobial activity against Klebsiella pneumoniae MB 4005; value ranges from 32-64 ug/mL
[41] = test system: Staphylococcus haemolyticus; test: Tested in vitro for antimicrobial activity against Staphylococcus haemolyticus MB 5412
Staphylococcus aureus [42] = test: Tested in vitro for antimicrobial activity against Staphylococcus aureus MB 2865; value ranges from 0.25-0.5 ug/mL

Work on `CC[C@H]1OC(=O)[C@H](C)[C@@H](O[C@H]2C[C@@](C)(OC)[C@@H](O)[C@H](C)O2)[C@H](C)[C@@H](O[C@@H]2O[C@H](C)C[C@H](N(C)C)[C@H]2O)[C@](C)(O)C[C@@H](C)N(C)C[C@H](C)C[C@]1(C)O` yielded an MIC (Enterobacter cloacae [1]) of 2 mg/L (≈ 2.73 µM), an MIC (Enterococcus faecalis [2]) of 4 mg/L (≈ 5.46 µM) and an MIC (Escherichia coli [3]) of 4 mg/L (≈ 5.46 µM). The MIC (Haemophilus influenzae [4]) was 4 mg/L (≈ 5.46 µM), the MIC (Klebsiella pneumoniae [5]) was 2 mg/L (≈ 2.73 µM) and the MIC [6] was 0.25 mg/L (≈ 0.341 µM). The MIC (Staphylococcus aureus [7]) was 2 mg/L (≈ 2.73 µM), the MIC (Streptococcus pyogenes [8]) was 0.03 mg/L (≈ 0.0409 µM) and the MIC (Streptococcus pyogenes [9]) was over 128 mg/L. It also gave an MIC (Streptococcus pyogenes [10]) of 16 mg/L (≈ 21.8 µM).

`CC[C@H]1OC(=O)[C@H](C)[C@@H](O[C@H]2C[C@@](C)(OC)[C@@H](O)[C@H](C)O2)[C@H](C)[C@@H](O[C@@H]2O[C@H](C)C[C@H](N(C)C)[C@H]2O)[C@](C)(O)C[C@@H](C)N(C)C[C@@H](C)C[C@]1(C)O` was tested, and the MIC (Enterobacter cloacae [11]) was 2 mg/L (≈ 2.73 µM), the MIC (Enterococcus faecalis [12]) was 2 mg/L (≈ 2.73 µM) and the MIC (Escherichia coli [13]) was 2 mg/L (≈ 2.73 µM). The MIC (Haemophilus influenzae [14]) was 2 mg/L (≈ 2.73 µM), the MIC (Klebsiella pneumoniae [5]) was 2 mg/L (≈ 2.73 µM) and the MIC [15] was 0.125 mg/L (≈ 0.171 µM). The MIC (Staphylococcus aureus [16]) was 0.25 mg/L (≈ 0.341 µM), the MIC (Streptococcus pyogenes [8]) was 0.03 mg/L (≈ 0.0409 µM) and the MIC (Streptococcus pyogenes [9]) was over 128 mg/L. The MIC (Streptococcus pyogenes [17]) was 8 mg/L (≈ 10.9 µM).

Compound `CC[C@H]1OC(=O)[C@H](C)[C@@H](O[C@H]2C[C@@](C)(OC)[C@@H](O)[C@H](C)O2)[C@H](C)[C@@H](O[C@@H]2O[C@H](C)C[C@H](N(C)C)[C@H]2O)[C@](C)(O)C[C@@H](C)N(C)C[C@H](C)[C@@H](O)[C@]1(C)O` [L-701677] has an MIC (Enterococcus faecalis [12]) of 2 mg/L (≈ 2.67 µM), an MIC (Haemophilus influenzae [18]) of 1 mg/L (≈ 1.34 µM) and an MIC (Klebsiella pneumoniae [19]) of 1 mg/L (≈ 1.34 µM). For the same compound, the MIC [15] was 0.125 mg/L (≈ 0.167 µM), the MIC (Staphylococcus aureus [20]) was 0.5 mg/L (≈ 0.668 µM) and the MIC (Streptococcus pyogenes [8]) was 0.03 mg/L (≈ 0.0401 µM). It also gave an MIC (Streptococcus pyogenes [9]) of over 128 mg/L, an MIC (Streptococcus pyogenes [17]) of 8 mg/L (≈ 10.7 µM) and an MIC (Enterobacter cloacae [21]) of 0.5 mg/L (≈ 0.668 µM). The MIC (Escherichia coli [22]) was 1 mg/L (≈ 1.34 µM).

Work on `CC[C@H]1OC(=O)[C@H](C)[C@@H](O[C@H]2C[C@@](C)(OC)[C@@H](O)[C@H](C)O2)[C@H](C)[C@@H](O[C@@H]2O[C@H](C)C[C@H](N(C)C)[C@H]2O)[C@](C)(O)C[C@@H](C)/N=C2\O[C@]1(C)C=C2C` yielded an MIC (Enterobacter cloacae [23]) of 64 mg/L (≈ 89.8 µM), an MIC (Enterococcus faecalis [24]) of 64 mg/L (≈ 89.8 µM) and an MIC (Escherichia coli [25]) of 64 mg/L (≈ 89.8 µM). It also gave an MIC (Haemophilus influenzae [26]) of 32 mg/L (≈ 44.9 µM), an MIC (Klebsiella pneumoniae [27]) of 64 mg/L (≈ 89.8 µM) and an MIC (Staphylococcus aureus [28]) of 16 mg/L (≈ 22.4 µM). For the same compound, the MIC (Streptococcus pyogenes [29]) was 1 mg/L (≈ 1.4 µM), the MIC (Streptococcus pyogenes [9]) was over 128 mg/L and the MIC (Streptococcus pyogenes [30]) was over 128 mg/L. For the same compound, the MIC [31] was 8 mg/L (≈ 11.2 µM).

With `CC[C@H]1OC(=O)[C@H](C)[C@@H](O[C@H]2C[C@@](C)(OC)[C@@H](O)[C@H](C)O2)[C@H](C)[C@@H](O[C@@H]2O[C@H](C)C[C@H](N(C)C)[C@H]2O)[C@](C)(O)C[C@@H](C)N(C)C/C(C)=C/[C@]1(C)O` the MIC (Enterobacter cloacae [32]) was 4 mg/L (≈ 5.47 µM), the MIC (Escherichia coli [33]) was 8 mg/L (≈ 10.9 µM) and the MIC (Enterococcus faecalis [2]) was 4 mg/L (≈ 5.47 µM). It also gave an MIC (Haemophilus influenzae [4]) of 4 mg/L (≈ 5.47 µM), an MIC (Klebsiella pneumoniae [34]) of 8 mg/L (≈ 10.9 µM) and an MIC [35] of 0.5 mg/L (≈ 0.684 µM). For the same compound, the MIC (Staphylococcus aureus [36]) was 2 mg/L (≈ 2.74 µM), the MIC (Streptococcus pyogenes [8]) was 0.03 mg/L (≈ 0.041 µM) and the MIC (Streptococcus pyogenes [9]) was over 128 mg/L. The MIC (Streptococcus pyogenes [17]) was 8 mg/L (≈ 10.9 µM).

For `CC[C@H]1OC(=O)[C@H](C)[C@@H](O[C@H]2C[C@@](C)(OC)[C@@H](O)[C@H](C)O2)[C@H](C)[C@@H](O[C@@H]2O[C@H](C)C[C@H](N(C)C)[C@H]2O)[C@](C)(O)C[C@@H](C)C(=O)[C@H](C)[C@@H](O)[C@]1(C)O` [ERYTHROMYCIN], the MIC (Enterobacter cloacae [37]) was 32 mg/L (≈ 43.6 µM), the MIC (Enterococcus faecalis [38]) was 1 mg/L (≈ 1.36 µM) and the MIC (Escherichia coli [39]) was 32 mg/L (≈ 43.6 µM). It also gave an MIC (Haemophilus influenzae [4]) of 4 mg/L (≈ 5.45 µM), an MIC (Klebsiella pneumoniae [40]) of 32 mg/L (≈ 43.6 µM) and an MIC [41] of 0.125 mg/L (≈ 0.17 µM). The MIC (Staphylococcus aureus [42]) was 0.25 mg/L (≈ 0.341 µM), the MIC (Streptococcus pyogenes [8]) was 0.03 mg/L (≈ 0.0409 µM) and the MIC (Streptococcus pyogenes [9]) was over 128 mg/L. It also gave an MIC (Streptococcus pyogenes [30]) of 32 mg/L (≈ 43.6 µM).
